Tested on: recombinant HLA-DR*0401
Format: binding, human

IKNKIDGETTDYAAPV
affinity for HLA-DR*0401: high affinity
